According to the supplement of paper PMC10307832:

Key:
Assay in all cases: relative viability (nuclei count vs DMSO), 5 days (fraction); higher = more cells survive
[1] = compound: C=CCc1cccc(/C=N/NC(=O)CN2CCN(Cc3ccccc3)CC2)c1O [PAC-1] + COc1cccc2cc(-c3nc([C@H]4CC[C@H](C(=O)O)CC4)n4ncnc(N)c34)[nH]c12 [OSI-027] (partner 0.5 µM)
Outline: (§1)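 Lung cancer cell lines in 1536-well plates got either a single drug or a fixed anchor-drug dose together with five library-drug doses (not always all listed) in √10 steps, by pin tool, on the day after seeding. Nuclei were counted after 5 days, and relative viability is the treated-to-vehicle ratio of nuclei counts. Values are medians of duplicate plates.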

[2] = compound: C=CC(=O)Nc1cc(-n2c(=O)ccc3cnc4ccc(-c5ccc(NS(C)(=O)=O)cc5)cc4c32)ccc1C [BMX-IN-1] + O=C(CCCCCCC(=O)Nc1ccccc1)NO [Vorinostat] (partner 1 µM)
Outline: as §1

[3] = compound: C=CC(=O)N1CCC[C@@H](n2nc(-c3ccc(Oc4ccccc4)cc3)c3c(N)ncnc32)C1 [Ibrutinib] + CC1(C)CCC(c2ccc(Cl)cc2)=C(CN2CCN(c3ccc(C(=O)NS(=O)(=O)c4ccc(N[C@H](CCN5CCOCC5)CSc5ccccc5)c(S(=O)(=O)C(F)(F)F)c4)cc3)CC2)C1 [Navitoclax] (partner 0.5 µM)
Outline: as §1

[4] = compound: C=CC(=O)Nc1cc(-n2c(=O)ccc3cnc4ccc(-c5ccc(NS(C)(=O)=O)cc5)cc4c32)ccc1C [BMX-IN-1] + C[C@@H](Oc1cc(-c2cnn(C3CCNCC3)c2)cnc1N)c1c(Cl)ccc(F)c1Cl [Crizotinib] (partner 1 µM)
Outline: as §1

SK-MES-1
relative viability ([1]; first compound 0.02 µM): 0.651
relative viability ([1]; first compound 0.06325 µM): 0.636
relative viability ([1]; first compound 0.2 µM): 0.533
relative viability ([1]; first compound 2 µM): 0.645
relative viability ([2]; first compound 0.02 µM): 1.1
relative viability ([2]; first compound 0.2 µM): 1.18
relative viability ([2]; first compound 0.6325 µM): 1.45
relative viability ([2]; first compound 2 µM): 0.717
relative viability ([3]; first compound 0.005 µM): 1.19
relative viability ([3]; first compound 0.01581 µM): 1.2
relative viability ([3]; first compound 0.05 µM): 1.34
relative viability ([3]; first compound 0.1581 µM): 1.32
relative viability ([3]; first compound 0.5 µM): 0.723
relative viability ([4]; first compound 0.02 µM): 1.08
relative viability ([4]; first compound 0.2 µM): 1.3
relative viability ([4]; first compound 0.6325 µM): 1.08
relative viability ([4]; first compound 2 µM): 1.1
